Data published in ChEMBL document CHEMBL1155864, “N-Acyl-3-amino-5H-furanone derivatives as new inhibitors of LuxR-dependent quorum sensing: Synthesis, biological evaluation and binding mode study” (Bioorg Med Chem Lett, 2008).
pIC50: −log10 of the molar value. Active and inactive are the calls of the source. The calls are words filed in the database; no cut-off is given here.

Tests used:
[1] = molecular target: T1, Transcriptional activator protein LuxR (Aliivibrio fischeri, UniProt P12746); test: Inhibition of LuxR-dependent Vibrio fischeri quorum sensing assessed as reduction in 3-oxo-hexanoyihomoserine-induced bioluminescence
T1 sequence (P12746 whole entry): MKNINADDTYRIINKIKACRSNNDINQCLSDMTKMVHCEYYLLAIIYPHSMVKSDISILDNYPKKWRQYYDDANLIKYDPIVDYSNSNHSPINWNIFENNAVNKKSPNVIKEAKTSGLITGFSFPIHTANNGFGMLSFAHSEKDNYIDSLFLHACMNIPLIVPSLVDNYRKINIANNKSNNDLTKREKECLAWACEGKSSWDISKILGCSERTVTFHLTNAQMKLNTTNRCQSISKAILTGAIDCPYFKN

[2] = molecular target: T2, Transcriptional activator protein LuxR (Aliivibrio fischeri) (UniProt P12746); test: Inhibition of LuxR-dependent Vibrio fischeri quorum sensing assessed as reduction in 3-oxo-hexanoyihomoserine-induced bioluminescence upto 100 uM
T2 sequence (whole entry): T1 sequence (P12746 whole entry)

Compound | pIC50 [1] | Activity [2]
O=C(CCCc1ccccc1)NC1=C(Br)COC1=O | 4.08 | –
O=C(CCCc1ccccc1)NC1=CCOC1=O | – | inactive
CCCCCC(=O)NC1=CCOC1=O | 4.07 | –

More lines, now with the values ahead:

pIC50 [1] | Activity [2] | Compound
5.16 | – | CCCCCC(=O)NC1=C(Cl)COC1=O
4.26 | – | CCCC(=O)CC(=O)NC1=CCOC1=O
5.19 | – | CCCCCC(=O)NC1=C(Br)COC1=O
